{
  "source": "PubChem BioAssay AID1259409",
  "about": "(Chemical Carcinogenesis Research Information System (CCRIS), 2018)",
  "origin": "cited, not measured here",
  "system": "rodent chemically induced tumor inhibition, incidence and multiplicity",
  "test": "CCRIS tumor inhibitor studies",
  "data": [
    {"smiles": "O=C(OC[C@@H]1O[C@H](OC(=O)c2cc(O)c(O)c(OC(=O)c3cc(O)c(O)c(O)c3)c2)[C@@H](OC(=O)c2cc(O)c(O)c(OC(=O)c3cc(O)c(O)c(O)c3)c2)[C@H](OC(=O)c2cc(O)c(O)c(OC(=O)c3cc(O)c(O)c(O)c3)c2)[C@H]1OC(=O)c1cc(O)c(O)c(OC(=O)c2cc(O)c(O)c(O)c2)c1)c1cc(O)c(O)c(OC(=O)c2cc(O)c(O)c(O)c2)c1", "values": [
      {"measurement": "tumour outcome (control, treated, inhibition, significance)", "setting": "Carcinogen: 2,2'-DIHYDROXY-DI-N-PROPYLNITROSAMINE, 53609-64-6, N-ETHYL-N-HYDROXYETHYLNITROSAMINE, 13147-25-6, 3,2'-DIMETHYL-4-AMINO-, Carcinogen: 2,2'-DIHYDROXY-DI-N-PROPYLNITROSAMINE, 53609-64-6, N-ETHYL-N-HYDROXYETHYLNITROSAMINE, 13147-25-6, 3,2'-DIMETHYL-4-AMINO-, Dose [Inhibitor]: 0, 1% IN DIET FOR 32 WK BEGINNING 1 WK POST CARCINOGEN TREATMENT (STUDY DURATION: 36 WK), Route [Inhibitor]: ORAL, Species: RAT, Strain/Sex: F344/MALE, Target Tissue: Type of Lesion: KIDNEY: TRANSITIONAL CELL CARCINOMA, Dose [Carcinogen]: 1000 MG/KG BW DHPN TWICE, 1500 MG/KG BW EHEN TWICE, 75 MG/KG BW DMAB 3 TIMES ADMINISTERED OVER FIRST 3 WK, Promoter: NONE USED", "result": "1/14 (7%), 0/12 (0%), 100%, not significant"},
      {"measurement": "tumour outcome (control, treated, inhibition, significance)", "setting": "Carcinogen: 2,2'-DIHYDROXY-DI-N-PROPYLNITROSAMINE, 53609-64-6, N-ETHYL-N-HYDROXYETHYLNITROSAMINE, 13147-25-6, 3,2'-DIMETHYL-4-AMINO-, Carcinogen: 2,2'-DIHYDROXY-DI-N-PROPYLNITROSAMINE, 53609-64-6, N-ETHYL-N-HYDROXYETHYLNITROSAMINE, 13147-25-6, 3,2'-DIMETHYL-4-AMINO-, Dose [Inhibitor]: 0, 1% IN DIET FOR 32 WK BEGINNING 1 WK POST CARCINOGEN TREATMENT (STUDY DURATION: 36 WK), Route [Inhibitor]: ORAL, Species: RAT, Strain/Sex: F344/MALE, Target Tissue: Type of Lesion: LARGE INTESTINE: ADENOMA, Dose [Carcinogen]: 1000 MG/KG BW DHPN TWICE, 1500 MG/KG BW THEN TWICE, 75 MG/KG BW DMAB 3 TIMES ADMINISTERED OVER FIRST 3 WK, Dose [Carcinogen]: 1000 MG/KG BW DHPN TWICE, 1500 MG/KG BW THEN TWICE, 75 MG/KG BW DMAB 3 TIMES ADMINISTERED OVER FIRST 3 WK, Promoter: NONE USED", "result": "7/14 (50%), 2/12 (17%), 66%, not significant"},
      {"measurement": "tumour outcome (control, treated, inhibition, significance)", "setting": "Carcinogen: 2,2'-DIHYDROXY-DI-N-PROPYLNITROSAMINE, 53609-64-6, N-ETHYL-N-HYDROXYETHYLNITROSAMINE, 13147-25-6, 3,2'-DIMETHYL-4-AMINO-, Carcinogen: 2,2'-DIHYDROXY-DI-N-PROPYLNITROSAMINE, 53609-64-6, N-ETHYL-N-HYDROXYETHYLNITROSAMINE, 13147-25-6, 3,2'-DIMETHYL-4-AMINO-, Dose [Inhibitor]: 0, 1% IN DIET FOR 32 WK BEGINNING 1 WK POST CARCINOGEN TREATMENT (STUDY DURATION: 36 WK), Route [Inhibitor]: ORAL, Species: RAT, Strain/Sex: F344/MALE, Target Tissue: Type of Lesion: LARGE INTESTINE: CARCINOMA, Dose [Carcinogen]: 1000 MG/KG BW DHPN TWICE, 1500 MG/KG BW THEN TWICE, 75 MG/KG BW DMAB 3 TIMES ADMINISTERED OVER FIRST 3 WK, Promoter: NONE USED", "result": "3/14 (21%), 1/12 (8%), 62%, not significant"},
      {"measurement": "tumour outcome (control, treated, inhibition, significance)", "setting": "Carcinogen: 2,2'-DIHYDROXY-DI-N-PROPYLNITROSAMINE, 53609-64-6, N-ETHYL-N-HYDROXYETHYLNITROSAMINE, 13147-25-6, 3,2'-DIMETHYL-4-AMINO-, Carcinogen: 2,2'-DIHYDROXY-DI-N-PROPYLNITROSAMINE, 53609-64-6, N-ETHYL-N-HYDROXYETHYLNITROSAMINE, 13147-25-6, 3,2'-DIMETHYL-4-AMINO-, Dose [Inhibitor]: 0, 1% IN DIET FOR 32 WK BEGINNING 1 WK POST CARCINOGEN TREATMENT (STUDY DURATION: 36 WK), Route [Inhibitor]: ORAL, Species: RAT, Strain/Sex: F344/MALE, Target Tissue: Type of Lesion: LIVER: HEPATOCELLULAR CARCINOMA, Dose [Carcinogen]: 1000 MG/KG BW DHPN TWICE, 1500 MG/KG BW THEN, 75 MG/KG BW DMAB 3 TIMES ADMINISTERED OVER FIRST 3 WKS, Promoter: NONE USED", "result": "6/14 (43%), 3/12 (25%), 42%, not significant"},
      {"measurement": "tumour outcome (control, treated, inhibition, significance)", "setting": "Carcinogen: 2,2'-DIHYDROXY-DI-N-PROPYLNITROSAMINE, 53609-64-6, N-ETHYL-N-HYDROXYETHYLNITROSAMINE, 13147-25-6, 3,2'-DIMETHYL-4-AMINO-, Carcinogen: 2,2'-DIHYDROXY-DI-N-PROPYLNITROSAMINE, 53609-64-6, N-ETHYL-N-HYDROXYETHYLNITROSAMINE, 13147-25-6, 3,2'-DIMETHYL-4-AMINO-, Dose [Inhibitor]: 0, 1% IN DIET FOR 32 WK BEGINNING 1 WK POST CARCINOGEN TREATMENT (STUDY DURATION: 36 WK), Route [Inhibitor]: ORAL, Species: RAT, Strain/Sex: F344/MALE, Target Tissue: Type of Lesion: LUNG: ADENOMA, Dose [Carcinogen]: 1000 MG/KG BW DHPN TWICE, 1500 MG/KG BW THEN TWICE, 75 MG/KG BW DMAB 3 TIMES ADMINISTERED OVER FIRST 3 WK, Dose [Carcinogen]: 1000 MG/KG BW DHPN TWICE, 1500 MG/KG BW THEN TWICE, 75 MG/KG BW DMAB 3 TIMES ADMINISTERED OVER FIRST 3 WK, Promoter: NONE USED", "result": "7/14 (50%), 7/12 (58%), -16%, not significant"},
      {"measurement": "tumour outcome (control, treated, inhibition, significance)", "setting": "Carcinogen: 2,2'-DIHYDROXY-DI-N-PROPYLNITROSAMINE, 53609-64-6, N-ETHYL-N-HYDROXYETHYLNITROSAMINE, 13147-25-6, 3,2'-DIMETHYL-4-AMINO-, Carcinogen: 2,2'-DIHYDROXY-DI-N-PROPYLNITROSAMINE, 53609-64-6, N-ETHYL-N-HYDROXYETHYLNITROSAMINE, 13147-25-6, 3,2'-DIMETHYL-4-AMINO-, Dose [Inhibitor]: 0, 1% IN DIET FOR 32 WK BEGINNING 1 WK POST CARCINOGEN TREATMENT (STUDY DURATION: 36 WK), Route [Inhibitor]: ORAL, Species: RAT, Strain/Sex: F344/MALE, Target Tissue: Type of Lesion: LUNG: CARCINOMA, Dose [Carcinogen]: 1000 MG/KG BW DHPN TWICE, 1500 MG/KG BW THEN TWICE, 75 MG/KG BW DMAB 3 TIMES ADMINISTERED OVER FIRST 3 WK, Promoter: NONE USED", "result": "1/14 (7%), 2/12 (17%), -143%, not significant"},
      {"measurement": "tumour outcome (control, treated, inhibition, significance)", "setting": "Carcinogen: 2,2'-DIHYDROXY-DI-N-PROPYLNITROSAMINE, 53609-64-6, N-ETHYL-N-HYDROXYETHYLNITROSAMINE, 13147-25-6, 3,2'-DIMETHYL-4-AMINO-, Carcinogen: 2,2'-DIHYDROXY-DI-N-PROPYLNITROSAMINE, 53609-64-6, N-ETHYL-N-HYDROXYETHYLNITROSAMINE, 13147-25-6, 3,2'-DIMETHYL-4-AMINO-, Dose [Inhibitor]: 0, 1% IN DIET FOR 32 WK BEGINNING 1 WK POST CARCINOGEN TREATMENT (STUDY DURATION: 36 WK), Route [Inhibitor]: ORAL, Species: RAT, Strain/Sex: F344/MALE, Target Tissue: Type of Lesion: THYROID GLAND: CARCINOMA, Dose [Carcinogen]: 1000 MG/KG BW DHPN TWICE, 1500 MG/KG BW THEN TWICE, 75 MG/KG BW DMAB 3 TIMES ADMINISTERED OVER FIRST 3 WK, Promoter: NONE USED", "result": "3/14 (21%), 2/12 (17%), 19%, not significant"},
      {"measurement": "tumour outcome (control, treated, inhibition, significance)", "setting": "Carcinogen: 2,2'-DIHYDROXY-DI-N-PROPYLNITROSAMINE, 53609-64-6, N-ETHYL-N-HYDROXYETHYLNITROSAMINE, 13147-25-6, 3,2'-DIMETHYL-4-AMINO-, Carcinogen: 2,2'-DIHYDROXY-DI-N-PROPYLNITROSAMINE, 53609-64-6, N-ETHYL-N-HYDROXYETHYLNITROSAMINE, 13147-25-6, 3,2'-DIMETHYL-4-AMINO-, Dose [Inhibitor]: 0, 1% IN DIET FOR 32 WK BEGINNING 1 WK POST CARCINOGEN TREATMENT (STUDY DURATION: 36 WK), Route [Inhibitor]: ORAL, Species: RAT, Strain/Sex: F344/MALE, Target Tissue: Type of Lesion: URINARY BLADDER: CARCINOMA, Dose [Carcinogen]: 1000 MG/KG BW DHPN TWICE, 1500 MG/KG BW THEN TWICE, 75 MG/KG BW DMAB 3 TIMES ADMINISTERED OVER FIRST THREE WEEKS, Promoter: NONE USED", "result": "1/14 (7%), 2/12 (17%), -143%, not significant"},
      {"measurement": "outcome", "setting": "Carcinogen: 2,2'-DIHYDROXY-DI-N-PROPYLNITROSAMINE, 53609-64-6, N-ETHYL-N-HYDROXYETHYLNITROSAMINE, 13147-25-6, 3,2'-DIMETHYL-4-AMINO-, Carcinogen: 2,2'-DIHYDROXY-DI-N-PROPYLNITROSAMINE, 53609-64-6, N-ETHYL-N-HYDROXYETHYLNITROSAMINE, 13147-25-6, 3,2'-DIMETHYL-4-AMINO-, Dose [Inhibitor]: 0, 1% IN DIET FOR 32 WK BEGINNING 1 WK POST CARCINOGEN TREATMENT (STUDY DURATION: 36 WK), Route [Inhibitor]: ORAL, Species: RAT, Strain/Sex: F344/MALE, Target Tissue: Type of Lesion: URINARY BLADDER: PAPILLOMA, Dose [Carcinogen]: 1000 MG/KG BW DHPN TWICE, 1500 MG/KG BW THEN TWICE, 75 MG/KG BW DMAB 3 TIMES ADMINISTERED OVER FIRST 3 WK, Promoter: NONE USED", "result": "0/14 (0%), 3/12 (25%), -100%, not significant"},
      {"measurement": "tumour outcome (control, treated, inhibition, significance)", "setting": "Carcinogen: 7,12-DIMETHYLBENZ(A)ANTHRACENE [57-97-6], Dose [Inhibitor]: 400 UG IN 200 µL ACETONE ONCE 24 HR AFTER THE LAST INJECTION OF IRON DEXTRAN (STUDY DURATION: 35 WKS), Route [Inhibitor]: DERMAL, Species: MOUSE, Strain/Sex: SWISS ALBINO/FEMALE, Target Tissue: Type of Lesion: SKIN: TUMORS, Dose [Carcinogen]: 40 UG IN 200 µL ACETONE DAILY FOR 5 D BEGINNING 1 HR AFTER TANNIC ACID TREATMENT (STUDY DURATION: 35 WKS), Promoter: IRON DEXTRAN [9004-66-4]", "result": "70%, 10%, 86%, not calculated"},
      {"measurement": "tumour outcome (control, treated, inhibition, significance)", "setting": "Carcinogen: 7,12-DIMETHYLBENZ(A)ANTHRACENE [57-97-6], Dose [Inhibitor]: 400 UG IN 200 µL ACETONE ONCE (STUDY DURATION: 35 WKS), Route [Inhibitor]: DERMAL, Species: MOUSE, Strain/Sex: SWISS ALBINO/FEMALE, Target Tissue: Type of Lesion: SKIN: TUMORS, Dose [Carcinogen]: 40 UG IN 200 µL ACETONE DAILY FOR 5 D BEGINNING 1 HR AFTER TANNIC ACID TREATMENT (STUDY DURATION: 35 WKS)", "result": "40%, 0%, 100%, not calculated"}
    ]}
  ]
}
